In patent US11548899B2, “Fused 1,4-oxazepines and related analogs as BET bromodomain inhibitors” (THE REGENTS OF THE UNIVERSITY OF MICHIGAN, priority 2016, dated 2023):
Where “and” joins values, the source holds several entries; their conditions need not be identical. Equal values may be shown once. Read-outs that look alike come from different tables or passages of the source.

How the values were obtained:
recombinant BRD4 BD1 = biological target: T1, recombinant BRD4 BD1 (Homo sapiens, UniProt O60885); assay: Competitive fluorescence-polarization (FP) binding assay, BRD4 BD1; conditions: protein 10 nM, probe 1.5 nM
T1 construct: recombinant BRD4 BD1 and BRD4 BD2 proteins

recombinant BRD4 BD2 = biological target: T2, recombinant BRD4 BD2 (Homo sapiens, UniProt O60885); assay: Competitive fluorescence-polarization (FP) binding assay, BRD4 BD2; conditions: protein 6 nM, probe 1.5 nM
T2 construct: recombinant BRD4 BD1 and BRD4 BD2 proteins
Experimental: Fluorescence Polarization (FP) competitive binding studies were carried out using a FAM labeled fluorescent probe, see Cpd. […] Equilibrium dissociation constants (Kd) values of the fluorescent probe to BRD4 BD1 and BD2 proteins were determined from protein saturation experiments by monitoring the total fluorescence polarization of mixtures composed with the fluorescent probe at a fixed concentration and proteins with increasing concentrations up to full saturation. Serial dilutions of testing proteins were mixed with the fluorescent probe to a final volume of 200 μl in the assay buffer (100 mM phosphate buffer, pH=6.5, 0.01% Triton X-100 (Sigma, 282103) being added right before assays). Final fluorescent probe concentration was 1.5 nM for both proteins. Plates were incubated at room temperature for 30 minutes with gentle shaking to assure equilibrium. FP values in millipolarization units (mP) were measured using the Infinite M-1000 plate reader (Tecan U.S., Research Triangle Park, N.C.) in Microfluor 1 96-well, black, round-bottom plates (Thermo Scientific, Waltham, Mass.) at an excitation wavelength of 485 nm and an emission wavelength of 530 nm.
The IC50 and Ki values of compounds were determined in a competitive binding experiment. […] Mixtures of 10 μl of the tested compounds in assay buffer with 40% Ethylene Glycol and 190 μl of preincubated protein/probe complex solution in the assay buffer (100 mM potassium phosphate, pH 6.5, 0.01% Triton X-100) were added into assay plates which were incubated at room temperature for 30 minutes with gentle shaking. Final concentrations of proteins were 10 and 6 nM in assays for BRD4 BD1 and BD2, respectively. Final probe concentration is 1.5 nM in both assays. […] FP values were measured as described above. IC50 values were determined by nonlinear regression fitting of the competition curves.

[1] = FP competitive binding, read-out: IC50 (nM) BRD4 BD1

Structure (SMILES) | IC50 (recombinant BRD4 BD1; [1]) | IC50 (recombinant BRD4 BD2) | IC50 (recombinant BRD4 BD1; IC50 (nM) BRD4 BD1, FP competitive binding) [nM]
Cc1cc2c(s1)-n1c(C)nnc1COC2 [Cpd. No. 1, 2,9-dimethyl-4H,6H-thieno[2,3-e][1,2,4]triazolo[3,4-c][1,4]oxazepine] | 66900 nM |  | 
Cc1sc2c(c1Br)COCc1nnc(C)n1-2 [Cpd. No. 2, 3-bromo-2,9-dimethyl-4H,6H-thieno[2,3-e][1,2,4]triazolo[3,4-c][1,4]oxazepine] | 23200 nM |  | 
Cc1sc2c(c1-c1ccccc1)COCc1nnc(C)n1-2 [Cpd. No. 3, 2,9-dimethyl-3-phenyl-4H,6H-thieno[2,3-e][1,2,4]triazolo[3,4-c][1,4]oxazepine] | 13300 nM |  | 
Cc1sc2c(c1Cc1ccccc1)CN[C@@H](C)c1nnc(C)n1-2 [Cpd. No. 13, (S)-3-benzyl-2,6,9-trimethyl-5,6-dihydro-4H-thieno[3,2-f][1,2,4]triazolo[4,3-a][1,4]diazepine] | 1070 nM and 1200 nM | 1210 nM and 1350 nM | 
Cc1sc2c(c1Cc1ccccc1)CN[C@H](C)c1nnc(C)n1-2 [Cpd. No. 17, (R)-3-benzyl-2,6,9-trimethyl-5,6-dihydro-4H-thieno[3,2-f][1,2,4]triazolo[4,3-a][1,4]diazepine] | 1080 nM | 622 nM | 
CCC(=O)N1Cc2c(sc(C)c2Cc2ccccc2)-n2c(C)nnc2[C@@H]1C [Cpd. No. 19, (S)-1-(3-benzyl-2,6,9-trimethyl-4H-thieno[3,2-f][1,2,4]triazolo[4,3-a][1,4]diazepin-5(6H)-yl)propan-1-one] | 2430 nM | 3210 nM | 
COC(=O)C[C@H]1c2nnc(C)n2-c2sc(C)c(Cc3ccccc3)c2CN1C(=O)OCc1ccccc1 [Cpd. No. 21, benzyl (S)-3-benzyl-6-(2-methoxy-2-oxoethyl)-2,9-dimethyl-4H-thieno[3,2-f][1,2,4]triazolo[4,3-a][1,4]diazepine-5(6H)-carboxylate] | 23800 nM | 17700 nM | 
CCNC(=O)N1Cc2c(sc(C)c2Cc2ccccc2)-n2c(C)nnc2[C@@H]1C [Cpd. No. 22, (S)-3-benzyl-N-ethyl-2,6,9-trimethyl-4H-thieno[3,2-f][1,2,4]triazolo[4,3-a][1,4]diazepine-5(6H)-carboxamide] | 6060 nM | 5920 nM | 
COC(=O)C[C@@H]1NCc2c(sc(C)c2Cc2ccccc2)-n2c(C)nnc21 [Cpd. No. 23, methyl(S)-2-(3-benzyl-2,9-dimethyl-5,6-dihydro-4H-thieno[3,2-f][1,2,4]triazolo[4,3-a][1,4]diazepin-6-yl)acetate] | 2500 nM | 9010 nM | 
Cc1nnc2n1-c1scc(Cc3ccccc3)c1COC2 [Cpd. No. 30, 3-benzyl-9-methyl-4H,6H-thieno[2,3-e][1,2,4]triazolo[3,4-c][1,4]oxazepine] | 1390 nM |  | 
Cc1sc2c(c1C1=CCc3ccccc31)COCc1nnc(C)n1-2 [Cpd. No. 53, 3-(1H-inden-3-yl)-2,9-dimethyl-4,6-dihydrothieno[2,3-e][1,2,4]triazolo[3,4-c][1,4]oxazepine] | 244 nM |  | 
Cc1sc2c(c1C1CCc3ccccc31)COCc1nnc(C)n1-2 (centres unmarked) [Cpd. No. 55, 3-(2,3-dihydro-1H-inden-1-yl)-2,9-dimethyl-4,6-dihydrothieno[2,3-e][1,2,4]triazolo[3,4-c][1,4]oxazepine] | 288 nM |  | 
Cc1sc2c(c1C1=CCCCc3ccccc31)COCc1nnc(C)n1-2 [Cpd. No. 56, 3-(6,7-dihydro-5H-benzo[7]annulen-9-yl)-2,9-dimethyl-4,6-dihydrothieno[2,3-e][1,2,4]triazolo[3,4-c][1,4]oxazepine] | 134 nM |  | 
Cc1sc2c(c1C1=CCCc3cc(F)ccc31)COCc1nnc(C)n1-2 [Cpd. No. 57, 3-(6-fluoro-3,4-dihydronaphthalen-1-yl)-2,9-dimethyl-4,6-dihydrothieno[2,3-e][1,2,4]triazolo[3,4-c][1,4]oxazepine] | 198 nM |  | 
Cc1sc2c(c1C1=CCCc3ccc(F)cc31)COCc1nnc(C)n1-2 [Cpd. No. 58, 3-(7-fluoro-3,4-dihydronaphthalen-1-yl)-2,9-dimethyl-4,6-dihydrothieno[2,3-e][1,2,4]triazolo[3,4-c][1,4]oxazepine] | 289 nM |  | 
Cc1nnc2n1-c1cccc(C3=CCCCc4ccccc43)c1COC2 [Cpd. No. 59, 7-(6,7-dihydro-5H-benzo[7]annulen-9-yl)-1-methyl-4,6-dihydrobenzo[e][1,2,4]triazolo[3,4-c][1,4]oxazepine] | 966 nM |  | 
Cc1nnc2n1-c1cccc(C3CCCCc4ccccc43)c1COC2 (centres unmarked) [Cpd. No. 60, 1-methyl-7-(6,7,8,9-tetrahydro-5H-benzo[7]annulen-5-yl)-4,6-dihydrobenzo[e][1,2,4]triazolo[3,4-c][1,4]oxazepine] | 1150 nM |  | 
Cc1nnc2n1-c1ccc(Cl)c(Br)c1COC2 [Cpd. No. 70, 7-bromo-8-chloro-1-methyl-4,6-dihydrobenzo[e][1,2,4]triazolo[3,4-c][1,4]oxazepine] | > 10000 nM |  | 
Cc1nnc2n1-c1ccc(-c3ccc(N)nc3)c(Cc3ccccc3)c1COC2 [Cpd. No. 72, 5-(7-benzyl-1-methyl-4,6-dihydrobenzo[e][1,2,4]triazolo[3,4-c][1,4]oxazepin-8-yl)pyridin-2-amine] | 2070 nM and 1980 nM |  | 

Structure (SMILES) | IC50 (recombinant BRD4 BD1; [1]) | IC50 (recombinant BRD4 BD2) | IC50 (recombinant BRD4 BD1; IC50 (nM) BRD4 BD1, FP competitive binding) [nM]
Cc1nnc2n1-c1ccc(Cl)c(C3=CCCc4ccccc43)c1COC2 [Cpd. No. 74, 8-chloro-7-(3,4-dihydronaphthalen-1-yl)-1-methyl-4,6-dihydrobenzo[e][1,2,4]triazolo[3,4-c][1,4]oxazepine] |  |  | 1780
Cc1nnc2n1-c1ccc(-c3cn[nH]c3)c(Cc3ccccc3)c1COC2 [Cpd. No. 75, 7-benzyl-1-methyl-8-(1H-pyrazol-4-yl)-4,6-dihydrobenzo[e][1,2,4]triazolo[3,4-c][1,4]oxazepine] | 923 nM |  | 
Cc1nnc2n1-c1ccc(-c3cnn(CC(N)=O)c3)c(Cc3ccccc3)c1COC2 [Cpd. No. 76, 2-(4-(7-benzyl-1-methyl-4,6-dihydrobenzo[e][1,2,4]triazolo[3,4-c][1,4]oxazepin-8-yl)-1H-pyrazol-1-yl)acetamide] | 937 nM |  | 
Cc1nnc2n1-c1ccc(C3=CCOCC3)c(Cc3ccccc3)c1COC2 [Cpd. No. 77, 7-benzyl-8-(3,6-dihydro-2H-pyran-4-yl)-1-methyl-4,6-dihydrobenzo[e][1,2,4]triazolo[3,4-c][1,4]oxazepine] | 13200 nM |  | 
Cc1nnc2n1-c1ccc(C3=COCC3)c(Cc3ccccc3)c1COC2 [Cpd. No. 78, 7-benzyl-8-(4,5-dihydrofuran-3-yl)-1-methyl-4,6-dihydrobenzo[e][1,2,4]triazolo[3,4-c][1,4]oxazepine] | 1320 nM |  | 
Cc1nnc2n1-c1ccc(C3CCOCC3)c(Cc3ccccc3)c1COC2 [Cpd. No. 79, 7-benzyl-1-methyl-8-(tetrahydro-2H-pyran-4-yl)-4,6-dihydrobenzo[e][1,2,4]triazolo[3,4-c][1,4]oxazepine] | 18100 nM |  | 
Cc1nnc2n1-c1ccc(-c3ccoc3)c(Cc3ccccc3)c1COC2 [Cpd. No. 80, 7-benzyl-8-(furan-3-yl)-1-methyl-4,6-dihydrobenzo[e][1,2,4]triazolo[3,4-c][1,4]oxazepine] | 532 nM |  | 
Cc1nnc2n1-c1ccc(C3CCOC3)c(Cc3ccccc3)c1COC2 (centres unmarked) [Cpd. No. 81, 7-benzyl-1-methyl-8-(tetrahydrofuran-3-yl)-4,6-dihydrobenzo[e][1,2,4]triazolo[3,4-c][1,4]oxazepine] | 5420 nM |  | 
Cc1nnc2n1-c1ccc(C#C[Si](C)(C)C)c(Cc3ccccc3)c1COC2 [Cpd. No. 82, 7-benzyl-1-methyl-8-((trimethylsilyl)ethynyl)-4,6-dihydrobenzo[e][1,2,4]triazolo[3,4-c][1,4]oxazepine] | 500 nM |  | 
C#Cc1ccc2c(c1Cc1ccccc1)COCc1nnc(C)n1-2 [Cpd. No. 83, 7-benzyl-8-ethynyl-1-methyl-4,6-dihydrobenzo[e][1,2,4]triazolo[3,4-c][1,4]oxazepine] | 150 nM |  | 
Cc1nnc2n1-c1sc(CN3CCOCC3)c(Cc3ccccc3)c1COC2 [Cpd. No. 90, 3-benzyl-9-methyl-2-(morpholinomethyl)-4H,6H-thieno[2,3-][1,2,4]triazolo[3,4-c][1,4]oxazepine] | 6510 nM |  | 
C=C(C)c1sc2c(c1Cc1ccccc1)COCc1nnc(C)n1-2 [Cpd. No. 94, 3-benzyl-9-methyl-2-(prop-1-en-2-yl)-4H,6H-thieno[2,3-e][1,2,4]triazolo[3,4-c][1,4]oxazepine] | 1050 nM |  | 
Cc1nnc2n1-c1sc(C3=CCOCC3)c(Cc3ccccc3)c1COC2 [Cpd. No. 95, 3-benzyl-2-(3,6-dihydro-2H-pyran-4-yl)-9-methyl-4H,6H-thieno[2,3-e][1,2,4]triazolo[3,4-c][1,4]oxazepine] | 1820 nM |  | 
Cc1nnc2n1-c1sc(C3CCOCC3)c(Cc3ccccc3)c1COC2 [Cpd. No. 97, 3-benzyl-9-methyl-2-(tetrahydro-2H-pyran-4-yl)-4H,6H-thieno[2,3-e][1,2,4]triazolo[3,4-c][1,4]oxazepine] | 6710 nM |  | 
Cc1sc2c(c1Cc1cc(F)cc(F)c1)COCc1nnc(C)n1-2 [Cpd. No. 104, 3-(3,5-difluorobenzyl)-2,9-dimethyl-4H,6H-thieno[2,3-e][1,2,4]triazolo[3,4-c][1,4]oxazepine] | 313 nM |  | 
Cc1sc2c(c1Cc1ccc(F)c(F)c1)COCc1nnc(C)n1-2 [Cpd. No. 105, 3-(3,4-difluorobenzyl)-2,9-dimethyl-4H,6H-thieno[2,3-e][1,2,4]triazolo[3,4-c][1,4]oxazepine] | 279 nM |  | 
Cc1sc2c(c1Cn1cccc1)COCc1nnc(C)n1-2 [Cpd. No. 107, 3-((1H-pyrrol-1-yl)methyl)-2,9-dimethyl-4H,6H-thieno[2,3-e][1,2,4]triazolo[3,4-c][1,4]oxazepine] | 494 nM |  | 
Cc1sc2c(c1COC(C)(C)C)COCc1nnc(C)n1-2 [Cpd. No. 108, 3-(tert-butoxymethyl)-2,9-dimethyl-4H,6H-thieno[2,3-e][1,2,4]triazolo[3,4-c][1,4]oxazepine] | 5000 nM |  | 
Cc1nnc2n1-c1scc(Br)c1CO[C@H]2C [Cpd. No. 117, (S)-3-bromo-6,9-dimethyl-4,6-dihydrothieno[2,3-e][1,2,4]triazolo[3,4-c][1,4]oxazepine] | 118 nM |  | 
